# Assay results published in patent US9394549B2, “Method for producing useful chemical substance from terephthalic acid potassium salt” (GENARIS, INC., priority 2012, dated 2016).
# Columns and labels:
# [1] = test system: protocatechuic acid-producing Escherichia coli strain M7032 (pUXPEaLT_tphA2A3BA1_tpaK); assay: Production of protocatechuic acid from terephthalic acid salt in jar fermentor culture; format: cell-based; conditions: for Ratio of the capacity in production (protocatechuic acid): disodium terephthalate as 100%
# Protocol: A protocatechuic acid-producing plasmid pUXPEaLT_tphA2A3BA1_tpaK constructed in Reference Example 2 was introduced into Escherichia coli M7032 strain by a transformation method to obtain a protocatechuic acid-producing Escherichia coli strain M7032 (pUXPEaLT_tphA2A3BA1_tpaK).
# (§1) Subsequently, in the same manner as described in Example 2, the preculture of the present protocatechuic acid-producing bacterium was prepared and then merely 2% of such a preculture was inoculated in a main culture medium to carry out main culture. When the bacterial cell turbidity reached about 7 at an absorbance of 600 nm, an inducer m-toluic acid was added such that the final concentration thereof came to 1 mM to express terephthalate 1,2-dioxygenase protein, terephthalate 1,2-dioxygenase reductase protein, terephthalate dihydrodiol dehydrogenase protein, and terephthalic acid transporter protein. The glucose concentration was measured with time. When the glucose concentration reached 0, the glucose and substrate mixed solution was administered.
# (§2) Sampling was carried out 48 hours after the start of the main culture. Each of the samples was subjected to analysis by an LC-TOF type mass spectrometer (Waters Corporation, LCT Premier XE). Identification of terephthalic acid and protocatechuic acid was carried out with a combination of retention time of high performance liquid chromatography and an accurate mass value from the mass spectrometer, comparing to a standard sample of terephthalic acid and protocatechuic acid.
# (§3) Using the protocatechuic acid-producing Escherichia coli strain M7032 (pUXPEaLT_tphA2A3BA1_tpaK) created in Reference Example 2, in the same manner as described in Example 2, the preculture of the present protocatechuic acid-producing bacteria was prepared and then merely 2% of such a preculture was inoculated in a main culture medium to carry out main culture. When the bacterial cell turbidity reached about 7 at an absorbance of 600 nm, an inducer m-toluic acid was added such that the final concentration thereof came to 1 mM to express terephthalate 1,2-dioxygenase protein, terephthalate 1,2-dioxygenase reductase protein, terephthalate dihydrodiol dehydrogenase protein, and terephthalic acid transporter protein. The glucose concentration was measured with time. When the glucose concentration reached 0, the terephthalic acid salt derived from PET, which was prepared in Example 6, was dissolved such that the concentration thereof was 0.6M, mixed with glucose, and administered to a culture device.
# as §2, with “52” for “48”
# as §3, with “acid-producing bacterium” for “acid-producing bacteria”, “time. […]” for “time. When the glucose concentration reached 0, the terephthalic acid salt derived from PET, which was prepared in Example 6, was dissolved such that the concentration thereof was 0.6M, mixed with glucose, and administered to a culture device.”
# [2] = test system: gallic acid-producing Escherichia coli strain M7032 (pUXPEaLT_HFM145_tphA2A3BA1_tpaK); assay: Production of gallic acid from terephthalic acid salt in jar fermentor culture; format: cell-based; conditions: for Gallic acid: 0.6 M salt solution as raw material, 48 hours after the start of the main culture; for Ratio of the capacity in production (gallic acid): 48 hours, disodium terephthalate as 100%
# Protocol: as §1, with “A gallic acid plasmid pUXPEaLT_HFM145_tphA2A3BA1_tpaK constructed in Reference Example 2 was introduced into Escherichia coli M7032 strain by a transformation method to obtain a gallic acid-producing Escherichia coli strain M7032 (pUXPEaLT_HFM145_tphA2A3BA1_tpaK). Subsequently,” for “Subsequently,”, “this gallic” for “the present protocatechuic”, “this” for “such a”, “culture in the above condition.” for “culture.”, “protein,” for “protein, and”, “protein and improved para-hydroxybenzoate hydroxylase.” for “protein.”
# as §2, with “Identification of gallic acid and” for “Identification of terephthalic acid and”, “acid and gallic acid.” for “acid and protocatechuic acid.”
# [3] = 0.6 M salt solution as raw material, 48 hours after the start of the main culture
# [4] = salt obtained by depolymerization of PBT (Example 8), 0.6M, 48 hours
# [5] = salt obtained by depolymerization of PET (Example 6), 0.6M, 52 hours
SMILES,"Protocatechuic acid [1, 3] [g/L]",Ratio of the capacity in production (protocatechuic acid) ([1]; 48 hours) [%],"Ratio of the capacity in production (protocatechuic acid) ([1]; salt from PBT, 48 hours) [%]","Ratio of the capacity in production (protocatechuic acid) ([1]; salt from PET, 52 hours) [%]","Protocatechuic acid [1, 4] [g/L]","Protocatechuic acid [1, 5] [g/L]",Gallic acid [2] [g/L],Ratio of the capacity in production (gallic acid) [2] [%]
"O=C([O-])c1ccc(C(=O)[O-])cc1.[Na+].[Na+] [Disodium terephthalate, disodium terephthalate, reference compound]",5.0,100,100,100,10.2,10.2,7.6,100
N.O=C([O-])c1ccc(C(=O)O)cc1.[K+] [1-potassium 4-ammonium terephthalate],7.1,142,–,–,–,–,8.5,112
O=C([O-])c1ccc(C(=O)[O-])cc1.[K+].[Na+] [1-potassium 4-sodium terephthalate],7.7,154,108,108,11.0,11.1,8.4,111
"O=C([O-])c1ccc(C(=O)[O-])cc1.[K+].[K+] [Dipotassium terephthalate, dipotassium terephthalate]",8.3,166,114,113,11.6,11.5,8.6,113
